Results published in patent publication US10221163B2 (priority 2015, dated 2019).
Like-named read-outs stand apart in the source and are kept apart here.

What was measured:
[1] = tested on: Pseudomonas aeruginosa efflux− (MB9799), IMP-1; format: cell-based; details: C, D serine β-lactamase inhibitor closely related to relebactam; for P. aeruginosa expressing IMP-1, efflux − (MB9799) MITC95: concentration restoring susceptibility to imipenem at 2 μg/mL in the presence of a class A; for Concentration of metallo-β-lactamase inhibitor which restores susceptibility of efflux − (MB9799) strain to imipenem: imipenem at 2 μg/mL, in the presence of a class A
Summary of the method: (§1)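 Steps: add fixed imipenem and/or ceftazidime (usually CLSI breakpoint) and fixed AmpC-directed class A/C inhibitor to microbroth MIC wells; titrate MBL inhibitor; record concentration regaining susceptibility for each PAO1-derived strain; divide efflux+ by efflux− value.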

[2] = target: IMP-1 (Serratia marcescens, UniProt P52699); test: biochemical; format: biochemical; details: fluorescence assay, CCF2-FA substrate, 2 pM enzyme, 2 hours at 25° C.; read-out: IMP-1 IC50
Chain of IMP-1 (P52699 whole entry, looked up, species assumed): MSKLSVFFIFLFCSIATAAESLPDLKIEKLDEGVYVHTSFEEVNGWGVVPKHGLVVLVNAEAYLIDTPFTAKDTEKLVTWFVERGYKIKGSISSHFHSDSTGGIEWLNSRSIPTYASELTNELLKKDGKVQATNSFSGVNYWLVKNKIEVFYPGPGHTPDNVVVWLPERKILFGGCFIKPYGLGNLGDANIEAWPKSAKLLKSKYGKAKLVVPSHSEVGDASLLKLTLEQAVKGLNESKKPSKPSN
Summary of the method: (§2)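 Enzyme activity was measured by fluorescence using CCF2-FA, a cephalosporin-linked 7-hydroxycoumarin/fluorescein substrate, with inhibitor, metallo-β-lactamase and substrate incubated together for 2 hours at 25° C. IC50 came from a 4-parameter fit of inhibition versus log inhibitor concentration.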

[3] = target: NDM-1 (Klebsiella pneumoniae, UniProt C7C422); test: biochemical; format: biochemical; details: fluorescence assay, CCF2-FA substrate, 1 pM enzyme, 2 hours at 25° C.; read-out: NDM-1 IC50
Chain of NDM-1 (C7C422 whole entry, looked up, species assumed): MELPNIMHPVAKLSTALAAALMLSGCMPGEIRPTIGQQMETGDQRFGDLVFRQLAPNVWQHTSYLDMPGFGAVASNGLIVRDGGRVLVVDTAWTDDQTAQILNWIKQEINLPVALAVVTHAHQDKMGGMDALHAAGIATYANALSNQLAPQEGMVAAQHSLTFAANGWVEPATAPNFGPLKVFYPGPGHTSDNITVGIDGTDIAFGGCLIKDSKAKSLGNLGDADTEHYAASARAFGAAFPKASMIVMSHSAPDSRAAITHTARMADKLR
Summary of the method: as §2

[4] = target: VIM-1 (Pseudomonas aeruginosa (strain ATCC 15692 / DSM 22644 / CIP 104116 / JCM 14847 / LMG 12228 / 1C / PRS 101 / PAO1), UniProt A0A0F7KYQ8); test: biochemical; details: CCF2-FA substrate, 30 pM enzyme, 2 hours at 25° C.
Summary of the method: as §2

[5] = tested on: Pseudomonas aeruginosa efflux+ (MB9798), IMP-1; format: cell-based; parameters: Concentration of metallo-β-lactamase inhibitor which restores susceptibility of efflux + (MB9798) strain to imipenem: unit not given here; details: C, D serine β-lactamase inhibitor closely related to relebactam; for P. aeruginosa expressing IMP-1, efflux + (MB9798) MITC95: concentration restoring susceptibility to imipenem at 2 μg/mL in the presence of a class A; for Concentration of metallo-β-lactamase inhibitor which restores susceptibility of efflux + (MB9798) strain to imipenem: imipenem at 2 μg/mL, in the presence of a class A
Summary of the method: as §1

[6] = tested on: Serratia marcescens expressing IMP-1 (CL5741); format: cell-based; details: for Serratia marcescens expressing IMP-1 (CL5741) MITC95: with imipenem 1 μg/ml, 95% inhibition of bacterial growth; for Serratia marcescens MITC95: IMP-1 strain CL5741, with imipenem 1 μg/ml, 95% inhibition of growth
Summary of the method: (§3)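 Colonies grown overnight on blood agar at 35° C were suspended in saline, diluted 1:100 into 1.1×CAMHB and dispensed. Imipenem was added to 1 μg/ml, then test compound. After 22 hours to 24 hours at 35° C, absorbance was recorded.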

[7] = tested on: Klebsiella pneumoniae expressing VIM-1 (IHMA599644); format: cell-based; details: for Klebsiella pneumoniae expressing VIM-1 (IHMA599644) MITC95: with imipenem 1 μg/ml, 95% inhibition of bacterial growth; for Klebsiella pneumoniae MITC95: VIM-1 strain IHMA599644, with imipenem 1 μg/ml, 95% inhibition of growth
Summary of the method: as §3

[8] = tested on: Escherichia coli expressing NDM-1 (CLB30005, CLB30016); format: cell-based; details: with imipenem 1 μg/ml; for Escherichia coli expressing NDM-1 (CLB30016) MITC95: 95% inhibition of bacterial growth; for Escherichia coli MITC95: NDM-1 strain, 95% inhibition of growth
Summary of the method: as §3

[9] = tested on: Pseudomonas aeruginosa MB9798 vs MB9799
Summary of the method: as §1

[10] = fluorescence assay, read-out: VIM-1 IC50
[11] = ratio MITC95 PA_9798/MITC95 PA_9799
[12] = fold difference between efflux+ (MB9798) and efflux− (MB9799) strains, imipenem at 2 μg/mL

CN(C)C1CCN(S(=O)(=O)c2ccc(-c3cccc4sc(N)nc34)c(-c3nnn[nH]3)c2S(N)(=O)=O)CC1 [Example 26, 3-(2-amino-1,3-benzothiazol-4-yl)-6-{[4-(dimethylamino)piperidin-1-yl]sulfonyl}-2-(1H-tetrazol-5-yl)benzenesulfonamide]
P. aeruginosa expressing IMP-1, efflux − (MB9799) MITC95 [1]: 3.125 µM | IC50 [2]: 1.15 nM | IC50 [3]: 0.974 nM | IC50 [4, 10]: 1.66 nM | P. aeruginosa expressing IMP-1, efflux + (MB9798) MITC95 [5]: 6.25 µM | Serratia marcescens expressing IMP-1 (CL5741) MITC95 [6]: 3.125 µM | Klebsiella pneumoniae expressing VIM-1 (IHMA599644) MITC95 [7]: 12.5 µM | Escherichia coli expressing NDM-1 (CLB30016) MITC95 [8]: 12.5 µM | Efflux ratio [9, 11]: 2.00

Nc1ncccc1-c1ccc(S(=O)(=O)NC[C@@H]2CNCCN2)c(S(N)(=O)=O)c1-c1nn[nH]n1 [Example 313, (S)-4-(2-aminopyridin-3-yl)-N1-(piperazin-2-ylmethyl)-3-(2H-tetrazol-5-yl)benzene-1,2-disulfonamide]
P. aeruginosa expressing IMP-1, efflux − (MB9799) MITC95 [1]: 1.563 µM | IC50 [2]: 1.3 nM | IC50 [3]: 0.0817 nM | IC50 ([4]; VIM-1 IC50, fluorescence assay): 0.149 nM | P. aeruginosa expressing IMP-1, efflux + (MB9798) MITC95 [5]: 3.125 µM | Serratia marcescens MITC95 [6]: 0.7813 µM | Klebsiella pneumoniae MITC95 [7]: 3.125 µM | Escherichia coli MITC95 [8]: 0.3906 µM | Efflux ratio [9, 11]: 2.00

NCCCNS(=O)(=O)c1ccc(-c2cc(F)cc3[nH]c(N)nc23)c(-c2nn[nH]n2)c1S(N)(=O)=O [Example 402]
Concentration of metallo-β-lactamase inhibitor which restores susceptibility of efflux − (MB9799) strain to imipenem [1]: 0.7813 | IC50 [2]: 0.318 nM | IC50 [3]: 0.0524 nM | IC50 [4, 10]: 0.159 nM | Concentration of metallo-β-lactamase inhibitor which restores susceptibility of efflux + (MB9798) strain to imipenem [5]: 0.7813 | Serratia marcescens MITC95 [6]: 0.7813 µM | Klebsiella pneumoniae MITC95 [7]: 1.563 µM | Escherichia coli MITC95 [8]: 0.3906 µM | Efflux ratio [9, 12]: 1.00

NS(=O)(=O)c1c(S(=O)(=O)N[C@H]2CCNC2)ccc(-c2cccc3[nH]cnc23)c1-c1nn[nH]n1 [Example 197]
P. aeruginosa expressing IMP-1, efflux − (MB9799) MITC95 [1]: 0.7813 µM | IC50 [2]: 0.395 nM | IC50 [3]: 0.0764 nM | IC50 [4, 10]: 0.145 nM | P. aeruginosa expressing IMP-1, efflux + (MB9798) MITC95 [5]: 0.7813 µM | Serratia marcescens expressing IMP-1 (CL5741) MITC95 [6]: 1.172 µM | Klebsiella pneumoniae expressing VIM-1 (IHMA599644) MITC95 [7]: 3.125 µM | Escherichia coli expressing NDM-1 (CLB30016) MITC95 [8]: 2.344 µM | Efflux ratio [9, 11]: 1.00

NCCNS(=O)(=O)c1ccc(-c2cccc(NC[C@@H](O)CN)c2)c(-c2nn[nH]n2)c1S(N)(=O)=O [Example 352, (S)-3′-((3-amino-2-hydroxypropyl)amino)N4-(2-aminoethyl)-2-(2H-tetrazol-5-yl)-[1,1′-biphenyl]-3,4-disulfonamide]
P. aeruginosa expressing IMP-1, efflux − (MB9799) MITC95 [1]: 0.7813 µM | IC50 [2]: 4.39 nM | IC50 [3]: 1.41 nM | IC50 ([4]; VIM-1 IC50, fluorescence assay): 0.379 nM | P. aeruginosa expressing IMP-1, efflux + (MB9798) MITC95 [5]: 1.563 µM | Serratia marcescens MITC95 [6]: 1.563 µM | Klebsiella pneumoniae MITC95 [7]: 1.563 µM | Escherichia coli MITC95 [8]: 0.7813 µM | Efflux ratio [9, 11]: 2.00

N[C@@H]1C=C(c2ccc(S(=O)(=O)N[C@@H]3CCNC3)c(S(N)(=O)=O)c2-c2nn[nH]n2)CCC1 [Example 340, (S)-5′-amino-N4-((R)-pyrrolidin-3-yl)-2-(2H-tetrazol-5-yl)-2′,3′,4′,5′-tetrahydro-[1,1′-biphenyl]-3,4-disulfonamide]
P. aeruginosa expressing IMP-1, efflux − (MB9799) MITC95 [1]: 1.563 µM | IC50 [2]: 46.7 nM | IC50 [3]: 6.29 nM | IC50 ([4]; VIM-1 IC50, fluorescence assay): 2.89 nM | P. aeruginosa expressing IMP-1, efflux + (MB9798) MITC95 [5]: 6.25 µM | Serratia marcescens MITC95 [6]: 1.563 µM | Klebsiella pneumoniae MITC95 [7]: 0.7813 µM | Escherichia coli MITC95 [8]: 0.3906 µM | Efflux ratio [9, 11]: 4.00

NCC(CN)NS(=O)(=O)c1ccc(-c2cccc3ccc(N)nc23)c(-c2nn[nH]n2)c1S(N)(=O)=O [Example 430]
Concentration of metallo-β-lactamase inhibitor which restores susceptibility of efflux − (MB9799) strain to imipenem [1]: 1.563 | IC50 [2]: 0.102 nM | IC50 [3]: 0.0325 nM | IC50 [4, 10]: 0.103 nM | Concentration of metallo-β-lactamase inhibitor which restores susceptibility of efflux + (MB9798) strain to imipenem [5]: 1.563 | Serratia marcescens MITC95 [6]: 1.563 µM | Klebsiella pneumoniae MITC95 [7]: 1.563 µM | Escherichia coli MITC95 [8]: 1.172 µM | Efflux ratio [9, 12]: 1.00
